Tests used:
[1] = tested on: cerebellar granule neurons (CGN); experiment: Neuronal differentiation (neurite outgrowth) in primary CGN cultures; format: cell-based, rat; conditions: CGN grown 24 h in presence of peptide; FIGS. 1-5
Experimental: Primary cultures of cerebellar granule neurons (CGN) from seven days old rats were plated at a density of 10,000 cells/cm^2 in eight-well permanox chamber slides and left to differentiate for 24 hours in the presence of various concentrations of peptide. Cells were fixated and immuno-stained for GAP-43 to visualise only neurons. CGN cultures were fixed in 4% paraformaldehyde followed by blocking with 1% BSA and then incubateded with polyclonal rabbit antibodies against rat GAP-43 (Chemicon, AH Diagnostics, Aarhus, Denmark) (1:1000 dilution with 1% BSA) followed by incubation with secondary Alexa Fluor® 488 goat anti-rabbit antibodies (Molecular Probes, Eugene, Oreg., USA) (1:700 dilution with 1% BSA. Neurite length was estimated by means of a stereological approach (Rønn et al., 2000). Results are expressed as percentage neurite outgrowth±SEM, with the untreated controls set at 100%. Statistics are performed with a Student's paired t-test. *=p<0.05, **=p<0.01, ***=p<0.001. If not specifically indicated, four experiments were performed for each condition. 2.

[2] = tested on: cerebellar granule neurons (CGN); experiment: Cell survival assay, low-potassium induced apoptosis of CGN; format: cell-based, rat; conditions: apoptosis induced by 5 mM KCl medium, 48 h; FIGS. 6-9
Experimental: Primary CGN cultures from seven days old rats were plated at a density of 100,000 cells/cm^2 in eight-well permanox chamber slides coated with poly-D-Lysine and grown in a medium supplemented with 40 mM KCl. After 24 hours cytosine-β-D-arabinofuranoside was added to the culture to inhibit proliferation of non-neuronal cells. Neurons were left to differentiate for further 6 days in vitro, before apoptosis was induced by shifting cells into a starving medium containing either 5 mM KCl alone (negative control), 40 mM KCl (positive control) or 5 mM KCl plus various concentrations of peptide. 48 hours after apoptosis induction cells were fixated and stained with Hoechst 33258. Neuronal viability was estimated by comparing the amount of live neurons with the total number of neurons based on nuclear morphology. Results (see FIGS. 6-9) from at least four independent experiments are expressed as percentage survival±SEM, with the negative control set at 100%. Statistics are performed with a Student's paired t-test. *=p<0.05, **=p<0.01, ***=p<0.001. CGN from 7-day-old rats were induced to differentiate for 7 days in a medium with a high potassium concentration after which the neurons were grown for two days in a low potassium medium either in the absence or presence of IGF-1 (positive control), or the MT-derived peptides.

[3] = tested on: cerebellar granule neurons (CGN); experiment: TUNEL assay (DNA fragmentation) in CGN; format: cell-based, rat; conditions: 24 h after apoptosis induction; FIG. 10
Experimental: Primary cultures of seven days old rats were plated, cultured and induced to under-go apoptosis as described above for neuronal survival, however cells were fixated 24 hour after apoptosis induction. By using the Fluorescien FragEL DNA fragmentation Kit, which label free DNA ends with a green fluorescent colour, the amount of neurons undergoing DNA fragmentation can be estimated and compared to the total amount of cells, which are stained with propidium idodide. Results (see FIG. 10) from at least four independent experiments are expressed as percentage TUNEL positive cells±SEM, with the negative control set at 100%. Statistics are performed with a Student's paired t-test. *=p<0.05, **=p<0.01, ***=p<0.001.

[4] = tested on: focal brain injury on the right fronto-parietal cortex; experiment: Neuronal rescue and tissue repair in vivo after focal brain injury (dry-ice lesion); set-up: species or system rat; conditions: rats, tetrameric form of peptide s.c. 10 mg/kg/injection, FIG. 11
Experimental: A focal brain injury on the right fronto-parietal cortex was made by applying a piece of dry-ice (−78° C.) directly onto the skull for 30 seconds in mice and 60 seconds in rats, as previously described in detail (Penkowa and Moos, 1995). The rats were treated s.c. with the tetrameric form of the MTAcc peptide ([…]) one day before lesion and one and two days after the lesion (10 mg/kg bodyweight/injection). Three days after the lesion animals were fixed by transcardial perfusion with paraformaldehyde. Histochemistry and immunohistochemistry (IHC) were performed on sections cut from organs taken from fixated animals. For immunohistochemical investigation, brains were dissected and postfixed in Zamboni's fixative for 2-3 hours, dehydraded in graded alcohol followed by xylol and subsequently embedded in paraffin before being cut in 3 μm frontal sections throughout the entire area of the lesion. Terminal deoxynucleotidyl transferase (TdT)-mediated deoxyuridine triphosphate (dUTP)-biotin nick end labeling (TUNEL) was performed using the Fragment End Labeling (FragEL™) Detection Kit (Calbiochem, USA, code QIA33). The FragEL kit contains all the materials used below and each step was performed according to the manufacturer's recommendations. Sections were also immunostained for markers of oxidative stress such as peroxynitrite-induced nitration of tyrosine residues (NITT) and malondialdehyde (MDA) andfor markers of inflammation such as interleukin (IL)-1, IL-12 and tumor necrosis factor (TNF) α, as described by Penkowa et al. (2000).

[5] = biological target: MT2 protein (from Sigma); experiment: Surface plasmon resonance (SPR) analysis of peptide binding to immobilized MT2; conditions: for Kd / ka / kd: 25° C., PBS pH 7.4, immobilized MT2; for binding to MT2 protein immobilized on a sensor chip: difference to blank chip
Experimental: FIG. 12 Binding of the MTAcc peptide to MT studied by means of SPR analysis. Approximately 2000 resonance units (RU) of the MT2 protein (Sigma) were immobilized on the sensor chip. The binding is given as the response difference between the binding to the sensor chip with the immobilized MT2 and a blank sensor chip (unspecific binding). The peptide was injected into the sensor chip at a concentration of 0.87 μM. The experiment was repeated four times. FIG. 13 Binding of the MTBcc peptide to MT studied by means of SPR analysis. Approximately 2000 resonance units (RU) of the MT2 protein (Sigma) were immobilized on the sensor chip. The binding is given as the response difference between the binding to the sensor chip with the immobilized MT2 and a blank sensor chip (unspecific binding). The peptide was injected into the sensor chip at a concentration of 8.32 μM. The experiment was repeated four times. FIG. 14 Binding of the MTAn peptide to MT studied by means of SPR analysis. Approximately 2000 resonance units (RU) of the MT2 protein (Sigma) were immobilized on the sensor chip. The binding is given as the response difference between the binding to the sensor chip with the immobilized MT2 and a blank sensor chip (unspecific binding). The peptide was injected into the sensor chip at a concentration of 1.7 μM. Analysis of binding was performed employing a BIAcoreX instrument (Biosensor AB, Uppsala, Sweden) at 25° C. using 10 mM pH 7.4 sodium phosphate containing 150 mM NaCl as running buffer (phosphate-buffered saline, PBS). The flow-rate was 5 μl/min. Data were analysed by non-linear curve-fitting using the manufacturer's software. The MT2 protein (from Sigma) was immobilized on a sensor chip CM5 using an amine coupling kit (Biosensor AB) as follows: the chip was activated by 20 μl activation solution; the protein was immobilized using 12 μl 20 μg/ml protein in 10 mM sodium phosphate buffer pH 6.0; the chip was blocked by 35 μl blocking solution. Various peptides at the indicated concentrations were injected into the sensor chip. The curve corresponding to the difference between binding to MT2 and a blank chip was used for analysis.

| Substance | neurite outgrowth / differentiation of cerebellar primary neurons [1] | neuronal survival of CGN [2] | ka [5] | kd [5] | binding to MT2 protein immobilized on a sensor chip [5] | other results |
| --- | --- | --- | --- | --- | --- | --- |
| AQGSICKGASDKSS [MTAcc, tetrameric form used in vivo] | stimulated differentiation of cerebellar primary neurons | promoted survival of CGN in a dose dependent manner | 4.54 ± 0.21 × 10^3 M^−1 s^−1 | 4.00 ± 0.27 × 10^−4 s^−1 | specifically bind | number of apoptotic neurons (TUNEL positive cells, DNA fragmentation) [3]: strongly reduced the number of apoptotic neurons; number of apoptotic cells (TUNEL staining) ([4]; day -1, +1, +2, analysed 3 days after lesion): dramatic decrease of the number of apoptotic cell; inflammatory response to the lesion (IL-1, IL-12 and TNFα immunostaining) ([4]; 3 days after lesion): inhibition of the inflammatory response to the lesion; oxidative stress (NITT and MDA immunostaining) ([4]; 3 days after lesion): inhibition of oxidative stress; Kd [5]: 89.5 nM |
| AQGSISKGASDKSS (listed as Homo sapiens) [MTAc] | stimulated differentiation of cerebellar primary neurons | promoted survival of CGN in a dose dependent manner |  |  |  |  |
| IGF-1: positive control in the CGN survival assay [reference compound] |  | could be prevented |  |  |  |  |
| KGGEAAEAEAEK (listed as Homo sapiens) [MT31p] | no neuritogenic activity | promoted survival of CGN in a dose dependent manner |  |  |  |  |
| KKSSCSCSPVGSAK [MTAn] |  |  | 1.57 ± 0.05 × 10^4 M^−1 s^−1 | 5.74 ± 0.19 × 10^−3 s^−1 | specifically bind | Kd [5]: 367 nM |
| MDPNCSCAAGDSST (listed as Homo sapiens) [MTBnc] | stimulated differentiation of cerebellar primary neurons | promoted survival of CGN in a dose dependent manner |  |  |  |  |
| MDPNSSSAAGDSST (listed as Homo sapiens) [MTBn] | no neuritogenic activity | promoted survival of CGN in a dose dependent manner |  |  |  |  |
| SAGSCKCKESKSTS [MTBcc] | stimulated differentiation of cerebellar primary neurons | promoted survival of CGN in a dose dependent manner | 2.83 ± 0.93 × 10^3 M^−1 s^−1 | 5.01 ± 1.75 × 10^−4 s^−1 | specifically bind | number of apoptotic neurons (TUNEL positive cells, DNA fragmentation) [3]: strongly reduced the number of apoptotic neurons |
| SAGSSKSKESKSTS (listed as Homo sapiens) [MTBc] | stimulated differentiation of cerebellar primary neurons | promoted survival of CGN in a dose dependent manner |  |  |  |  |
